Results published in the supplement of paper PMC11208160.

Assay: recombinant barcode read abundance after kanamycin selection (control-corrected) (log10(CPM+1)); higher = more efficient recombination; sequences stand for … in AGTGCAGAGAAAATCGGCCAGTTTTCTCTGCCTGCAGTCCGCATGCCGT…ATTTATGCAGCGGACTGCCTTTCTCCCAAAGTGATAAACCGGACAGTATCATGGACCGGTTTTCCCGGTAATCCGTATTTGCAAGGTTGGTTTCACT; site = the 11-nt target
How it was run: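 Pooled oligos, each joining a target to an IS621 bridge RNA target-binding loop, were cloned and co-electroporated with a donor plasmid into E. coli. Selective plates carried chloramphenicol/ampicillin/kanamycin and 0.1 mM IPTG, while chloramphenicol/ampicillin LB agar served as control, with two replicates of each. Recombination efficiency rests on averaged, control-corrected counts per million of barcodes at recombinant junctions, shown as log10(CPM+1).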

Sequence | recombinant barcode read abundance (log10)
GCGGGACCCTGGGTTCTAACCTGTTGCCTGG [GCGGGACCTAG_LTGcore_CC_RTGcore_CC] (site GCGGGACCTAG) (LTG core: CC, RTG core: CC) | 1.52
GCGGGACGCTGGGTTCTAACCTGTTGCCTGC [GCGGGACCTAG_LTGcore_GC_RTGcore_GC] (site GCGGGACCTAG) (LTG core: GC, RTG core: GC) | 0.0844
GCGGGACGGTGGGTTCTAACCTGTTGCCTCC [GCGGGACCTAG_LTGcore_GG_RTGcore_GG] (site GCGGGACCTAG) (LTG core: GG, RTG core: GG) | 0.182
GGACACCAGTGGGTTCTAACCTGTTGCCTAG [GGACACCCTAG_LTGcore_AG_RTGcore_CT] (site GGACACCCTAG) (LTG core: AG, RTG core: CT) | 0.143
GGACACCAGTGGGTTCTAACCTGTTGCCTCT [GGACACCCTAG_LTGcore_AG_RTGcore_AG] (site GGACACCCTAG) (LTG core: AG, RTG core: AG) | 0.0138
GGACACCCGTGGGTTCTAACCTGTTGCCTAG [GGACACCCTAG_LTGcore_CG_RTGcore_CT] (site GGACACCCTAG) (LTG core: CG, RTG core: CT) | 1.2
GGACACCCTTGGGTTCTAACCTGTTGCCTAC [GGACACCCTAG_LTGcore_CT_RTGcore_GT] (site GGACACCCTAG) (LTG core: CT, RTG core: GT) | 1.33
GGACACCCTTGGGTTCTAACCTGTTGCCTAG [GGACACCCTAG_LTGcore_CT_RTGcore_CT] (site GGACACCCTAG) (LTG core: CT, RTG core: CT) | 2.43
GGACACCCTTGGGTTCTAACCTGTTGCCTTC [GGACACCCTAG_LTGcore_CT_RTGcore_GA] (site GGACACCCTAG) (LTG core: CT, RTG core: GA) | 0.732
GGACACCCTTGGGTTCTAACCTGTTGCCTTG [GGACACCCTAG_LTGcore_CT_RTGcore_CA] (site GGACACCCTAG) (LTG core: CT, RTG core: CA) | 1.32
GGACACCTCTGGGTTCTAACCTGTTGCCTAG [GGACACCCTAG_LTGcore_TC_RTGcore_CT] (site GGACACCCTAG) (LTG core: TC, RTG core: CT) | 0.117
GGCTCCCATTGGGTTCTAACCTGTTGCGGAT [GGCTCCCCTCC_LTGcore_AT_RTGcore_AT] (site GGCTCCCCTCC) (LTG core: AT, RTG core: AT) | 0.138
GGCTCCCCCTGGGTTCTAACCTGTTGCGGGG [GGCTCCCCTCC_LTGcore_CC_RTGcore_CC] (site GGCTCCCCTCC) (LTG core: CC, RTG core: CC) | 0.0622
GGCTCCCCGTGGGTTCTAACCTGTTGCGGAG [GGCTCCCCTCC_LTGcore_CG_RTGcore_CT] (site GGCTCCCCTCC) (LTG core: CG, RTG core: CT) | 0.116
GGCTCCCCGTGGGTTCTAACCTGTTGCGGCG [GGCTCCCCTCC_LTGcore_CG_RTGcore_CG] (site GGCTCCCCTCC) (LTG core: CG, RTG core: CG) | 0.0989
GGCTCCCCTTGGGTTCTAACCTGTTGCGGAG [GGCTCCCCTCC_LTGcore_CT_RTGcore_CT] (site GGCTCCCCTCC) (LTG core: CT, RTG core: CT) | 0.248
GGCTCCCCTTGGGTTCTAACCTGTTGCGGCG [GGCTCCCCTCC_LTGcore_CT_RTGcore_CG] (site GGCTCCCCTCC) (LTG core: CT, RTG core: CG) | 0.0875
GGCTCCCCTTGGGTTCTAACCTGTTGCGGGG [GGCTCCCCTCC_LTGcore_CT_RTGcore_CC] (site GGCTCCCCTCC) (LTG core: CT, RTG core: CC) | 0.0955
GGCTCCCCTTGGGTTCTAACCTGTTGCGGTT [GGCTCCCCTCC_LTGcore_CT_RTGcore_AA] (site GGCTCCCCTCC) (LTG core: CT, RTG core: AA) | 0.285
GGCTCCCGCTGGGTTCTAACCTGTTGCGGGC [GGCTCCCCTCC_LTGcore_GC_RTGcore_GC] (site GGCTCCCCTCC) (LTG core: GC, RTG core: GC) | 0.0637
GGCTCCCGTTGGGTTCTAACCTGTTGCGGAG [GGCTCCCCTCC_LTGcore_GT_RTGcore_CT] (site GGCTCCCCTCC) (LTG core: GT, RTG core: CT) | 0.546
GGCTCCCTGTGGGTTCTAACCTGTTGCGGCA [GGCTCCCCTCC_LTGcore_TG_RTGcore_TG] (site GGCTCCCCTCC) (LTG core: TG, RTG core: TG) | 0.234
GGGAGCCAATGGGTTCTAACCTGTTGCTGTT [GGGAGCCCTCA_LTGcore_AA_RTGcore_AA] (site GGGAGCCCTCA) (LTG core: AA, RTG core: AA) | 0.427

Sequence | recombinant barcode read abundance (log10)
GGGAGCCCATGGGTTCTAACCTGTTGCTGAG [GGGAGCCCTCA_LTGcore_CA_RTGcore_CT] (site GGGAGCCCTCA) (LTG core: CA, RTG core: CT) | 1.06
GGGAGCCCTTGGGTTCTAACCTGTTGCTGAA [GGGAGCCCTCA_LTGcore_CT_RTGcore_TT] (site GGGAGCCCTCA) (LTG core: CT, RTG core: TT) | 0.138
GGGAGCCCTTGGGTTCTAACCTGTTGCTGAT [GGGAGCCCTCA_LTGcore_CT_RTGcore_AT] (site GGGAGCCCTCA) (LTG core: CT, RTG core: AT) | 0.599
GGGAGCCCTTGGGTTCTAACCTGTTGCTGCC [GGGAGCCCTCA_LTGcore_CT_RTGcore_GG] (site GGGAGCCCTCA) (LTG core: CT, RTG core: GG) | 0.0726
GGGAGCCCTTGGGTTCTAACCTGTTGCTGTT [GGGAGCCCTCA_LTGcore_CT_RTGcore_AA] (site GGGAGCCCTCA) (LTG core: CT, RTG core: AA) | 0.272
GGGAGCCGCTGGGTTCTAACCTGTTGCTGAG [GGGAGCCCTCA_LTGcore_GC_RTGcore_CT] (site GGGAGCCCTCA) (LTG core: GC, RTG core: CT) | 0.379
GGGAGCCGGTGGGTTCTAACCTGTTGCTGAG [GGGAGCCCTCA_LTGcore_GG_RTGcore_CT] (site GGGAGCCCTCA) (LTG core: GG, RTG core: CT) | 0.212
GGGAGCCGGTGGGTTCTAACCTGTTGCTGCC [GGGAGCCCTCA_LTGcore_GG_RTGcore_GG] (site GGGAGCCCTCA) (LTG core: GG, RTG core: GG) | 0.0432
GGGCGGAAATGGGTTCTAACCTGTTGCGGTT [GGGCGGACTCC_LTGcore_AA_RTGcore_AA] (site GGGCGGACTCC) (LTG core: AA, RTG core: AA) | 0.428
GGGCGGAATTGGGTTCTAACCTGTTGCGGAT [GGGCGGACTCC_LTGcore_AT_RTGcore_AT] (site GGGCGGACTCC) (LTG core: AT, RTG core: AT) | 0.0199
GGGCGGACATGGGTTCTAACCTGTTGCGGTG [GGGCGGACTCC_LTGcore_CA_RTGcore_CA] (site GGGCGGACTCC) (LTG core: CA, RTG core: CA) | 0.732
GGGCGGACGTGGGTTCTAACCTGTTGCGGCG [GGGCGGACTCC_LTGcore_CG_RTGcore_CG] (site GGGCGGACTCC) (LTG core: CG, RTG core: CG) | 0.759
GGGCGGACTTGGGTTCTAACCTGTTGCGGCT [GGGCGGACTCC_LTGcore_CT_RTGcore_AG] (site GGGCGGACTCC) (LTG core: CT, RTG core: AG) | 0.292
GGGCGGACTTGGGTTCTAACCTGTTGCGGTG [GGGCGGACTCC_LTGcore_CT_RTGcore_CA] (site GGGCGGACTCC) (LTG core: CT, RTG core: CA) | 0.17
GGGCGGAGCTGGGTTCTAACCTGTTGCGGGC [GGGCGGACTCC_LTGcore_GC_RTGcore_GC] (site GGGCGGACTCC) (LTG core: GC, RTG core: GC) | 0.417
GGGCGGAGTTGGGTTCTAACCTGTTGCGGAC [GGGCGGACTCC_LTGcore_GT_RTGcore_GT] (site GGGCGGACTCC) (LTG core: GT, RTG core: GT) | 0.199
GGGCGGATGTGGGTTCTAACCTGTTGCGGAG [GGGCGGACTCC_LTGcore_TG_RTGcore_CT] (site GGGCGGACTCC) (LTG core: TG, RTG core: CT) | 0.251
GGGCGTGAATGGGTTCTAACCTGTTGCCTTT [GGGCGTGCTAG_LTGcore_AA_RTGcore_AA] (site GGGCGTGCTAG) (LTG core: AA, RTG core: AA) | 0.148
GGGCGTGCATGGGTTCTAACCTGTTGCCTTG [GGGCGTGCTAG_LTGcore_CA_RTGcore_CA] (site GGGCGTGCTAG) (LTG core: CA, RTG core: CA) | 0.0757
GGGCGTGCTTGGGTTCTAACCTGTTGCCTCT [GGGCGTGCTAG_LTGcore_CT_RTGcore_AG] (site GGGCGTGCTAG) (LTG core: CT, RTG core: AG) | 0.831
GGGCGTGGGTGGGTTCTAACCTGTTGCCTCC [GGGCGTGCTAG_LTGcore_GG_RTGcore_GG] (site GGGCGTGCTAG) (LTG core: GG, RTG core: GG) | 0.116
GGGCGTGGTTGGGTTCTAACCTGTTGCCTAC [GGGCGTGCTAG_LTGcore_GT_RTGcore_GT] (site GGGCGTGCTAG) (LTG core: GT, RTG core: GT) | 0.593
